From PubChem BioAssay (NCI)
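Here, GI50 denotes the concentration required for 50% inhibition of growth. TGI denotes the concentration required for complete inhibition of growth.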

Key:
Assay in all cases: DTP human tumour cell line panel, 384-well format
MDA-MB-468 breast = system: MDA-MB-468 breast
SNB-75 CNS = system: SNB-75 CNS
SN12C renal = system: SN12C renal
SK-MEL-28 melanoma = system: SK-MEL-28 melanoma
SNB-19 CNS = system: SNB-19 CNS
NCI-H322M lung = system: NCI-H322M lung
NCI-H460 NSCLC = system: NCI-H460 NSCLC
SF-268 CNS = system: SF-268 CNS
SK-MEL-5 melanoma = system: SK-MEL-5 melanoma
HS 578T breast = system: HS 578T breast
SF-539 CNS = system: SF-539 CNS
ACHN renal = system: ACHN renal
CCRF-CEM leukemia = system: CCRF-CEM leukemia
RPMI-8226 leukemia = system: RPMI-8226 leukemia
BT-549 breast = system: BT-549 breast
RXF 393 renal = system: RXF 393 renal
UACC-257 melanoma = system: UACC-257 melanoma
IGROV1 ovarian = system: IGROV1 ovarian
CAKI-1 renal = system: CAKI-1 renal
NCI-H522 lung = system: NCI-H522 lung
COLO 205 colon = system: COLO 205 colon
MDA-MB-435 melanoma = system: MDA-MB-435 melanoma
HL-60(TB) leukemia = system: HL-60(TB) leukemia
OVCAR-3 ovarian = system: OVCAR-3 ovarian
UACC-62 melanoma = system: UACC-62 melanoma
KM12 colon = system: KM12 colon
NCI/ADR-RES ovarian = system: NCI/ADR-RES ovarian
UO-31 renal = system: UO-31 renal
HCC-2998 colon = system: HCC-2998 colon
SR leukemia = system: SR leukemia
EKVX NSCLC = system: EKVX NSCLC
T-47D breast = system: T-47D breast
M14 melanoma = system: M14 melanoma
HCT-15 colon = system: HCT-15 colon
OVCAR-4 ovarian = system: OVCAR-4 ovarian
MOLT-4 leukemia = system: MOLT-4 leukemia
NCI-H23 lung = system: NCI-H23 lung
MALME-3M melanoma = system: MALME-3M melanoma

## CC(=O)N[C@@H]1CCC[C@H](C(=O)Nc2cc(-c3cnn4c3CC(C)(C)C4)c(Cl)cn2)C1
MDA-MB-468 breast
  GI50: < 10 nM
  TGI: < 10 nM
SNB-75 CNS
  GI50: < 10 nM
  TGI: 26.7 nM
SN12C renal
  GI50: < 10 nM
  TGI: 14 nM
SK-MEL-28 melanoma
  GI50: < 10 nM
  TGI: 11.4 nM
SNB-19 CNS
  GI50: < 10 nM
  TGI: > 100000 nM
NCI-H322M lung
  GI50: < 10 nM
  TGI: < 10 nM
NCI-H460 NSCLC
  GI50: < 10 nM
  TGI: 313 nM
SF-268 CNS
  GI50: < 10 nM
  TGI: < 10 nM
SK-MEL-5 melanoma
  GI50: < 10 nM
  TGI: < 10 nM
HS 578T breast
  GI50: < 10 nM
  TGI: < 10 nM
SF-539 CNS
  GI50: < 10 nM
  TGI: < 10 nM
ACHN renal
  GI50: < 10 nM
  TGI: > 100000 nM
CCRF-CEM leukemia
  GI50: < 10 nM
  TGI: < 10 nM
RPMI-8226 leukemia
  GI50: < 10 nM
  TGI: < 10 nM
BT-549 breast
  GI50: < 10 nM
  TGI: < 10 nM
RXF 393 renal
  GI50: < 10 nM
  TGI: < 10 nM
UACC-257 melanoma
  GI50: < 10 nM
  TGI: 21.9 nM
IGROV1 ovarian
  GI50: < 10 nM
  TGI: > 100000 nM
CAKI-1 renal
  GI50: < 10 nM
  TGI: > 100000 nM
NCI-H522 lung
  GI50: 14.8 nM
  TGI: 36 nM
COLO 205 colon
  GI50: < 10 nM
  TGI: < 10 nM
MDA-MB-435 melanoma
  GI50: < 10 nM
  TGI: 44.3 nM
HL-60(TB) leukemia
  GI50: < 10 nM
  TGI: < 10 nM
OVCAR-3 ovarian
  GI50: < 10 nM
  TGI: < 10 nM
UACC-62 melanoma
  GI50: < 10 nM
  TGI: < 10 nM
KM12 colon
  GI50: < 10 nM
  TGI: < 10 nM
NCI/ADR-RES ovarian
  GI50: 152 nM
  TGI: 620 nM
UO-31 renal
  GI50: 24.5 nM
  TGI: > 100000 nM
HCC-2998 colon
  GI50: < 10 nM
  TGI: 13.9 nM
SR leukemia
  GI50: < 10 nM
  TGI: < 10 nM
EKVX NSCLC
  GI50: < 10 nM
  TGI: 39.6 nM
T-47D breast
  GI50: < 10 nM
  TGI: > 100000 nM
M14 melanoma
  GI50: < 10 nM
  TGI: < 10 nM
HCT-15 colon
  GI50: < 10 nM
  TGI: 21800 nM
OVCAR-4 ovarian
  GI50: < 10 nM
  TGI: 18.3 nM
MOLT-4 leukemia
  GI50: < 10 nM
  TGI: < 10 nM
NCI-H23 lung
  GI50: < 10 nM
  TGI: 10.3 nM
MALME-3M melanoma
  GI50: < 10 nM
  TGI: 14.4 nM
